What was measured:
[1] = system: HL-60 cells; assay: Soft agar colony assay (clonal proliferation); type: cell-based; details: Homo sapiens, 336 h, colonies counted after 14 days, read-out: concentration that caused 50% inhibition (ED50) of clonal growth
Method: (§1) A soft agar colony assay was used to test the effect of paricalcitol and 1,25(OH)2D3 on various cancer cell lines. For the soft agar colony assay, trypsinized and washed single-cell suspensions of cells were enumerated and plated into 24 well flat bottom plates using a two-layer soft agar system with a total of 1×10^3 cells/well in a volume of […], as described previously (Kubota et al., supra, 1998).
(§2) Cell lines used in this study were obtained from American Type Culture Collection (Rockville, Md.) and were maintained according to their recommendations. Myeloid leukemia cell lines (HL-60, NB-4, THP-1, U937), lymphoma cell lines (Raji, Ramos, Daudi, Jurkat, Jeko-1, JUDHL) and myeloma cell lines (RPMI-8226, ARH-77, NCI-H929) were grown in RPMI 1640 with 10% FCS. Breast cancer cell lines (MCF-7, MDA-MB-231), brain cancer cell lines (U343, U118, U138, U373, U87), and colon cancer cell lines (HT-29, SW837, SW480, SW620, HCT116) were maintained in DMEM with 10% FCS. Endometrial carcinoma cell line, AN-3 was maintained in Alpha Minimum Essential Medium (a-MEM) with 10% FCS.

[2] = system: HT-29 cells; assay: Soft agar colony assay (clonal proliferation); type: cell-based; details: Homo sapiens, 336 h, colonies counted after 14 days, read-out: concentration that caused 50% inhibition (ED50) of clonal growth
Method: as §1, §2

[3] = system: SW837; assay: Soft agar colony assay (clonal proliferation); type: cell-based; details: Homo sapiens, 336 h, colonies counted after 14 days, read-out: concentration that caused 50% inhibition (ED50) of clonal growth
Method: as §1, §2

[4] = system: THP-1; assay: Soft agar colony assay (clonal proliferation); type: cell-based; details: Homo sapiens, 336 h, colonies counted after 14 days, read-out: concentration that caused 50% inhibition (ED50) of clonal growth
Method: as §1, §2

[5] = system: NCI-H929 cells; assay: Western blot of cell lysates; type: cell-based, human
Method: Western blot analysis was used to determine the levels of proteins involved in cell cycle and differentiation. […] After centrifugation at 15,000×g for 15 min at 4° C., the suspension was collected. Protein concentrations were quantitated using the Bio-Rad assay (Bio-Rad Labolatories, Hercules, Calif.). […] The blots were developed using the Supersignal West Pico Chemiluminescent Substrate Kit (Pierce, Rockford, Ill.). In FIG. 3C, NCI-H929 cells were treated with either paricalcitol (10^−7M) or 1,25(OH)2D3 (10^−7M) and cell lysates were prepared after 72 hrs. Cell lysates were used for Western blot analysis and probed sequentially with antibodies to p27KIP1, Bcl-2 and Bax. Control cells were treated with vehicle alone. Amount of protein was normalized by comparison to the amount of GAPDH. […] The Bcl-2 and Bax antibodies were obtained from Santa Cruz Biotechnology Inc., Santa Cruz, Calif.

[6] = system: HCT116 colon cancer cells; assay: MTT assay; type: cell-based, human; details: 10^−7M, 96 hrs
Method: (§3) HT-29, SW837, SW480 and HCT116 colon cancer cells were treated for 96 hrs with either paricalcitol (10^−7M) 1,25(OH)2D3 (10^−7M) or diluant (control). Growth (% of control) was measured by MTT assay. Results represent the mean±SD of three independent experiments with triplicate dishes. […] were incubated in culture medium for 96 hr in 96 well-plates and […] of MTT solution was added.

[7] = system: HT-29 colon cancer cells; assay: MTT assay; type: cell-based, human; details: 10^−7M, 96 hrs
Method: as §3

[8] = system: SW480 colon cancer cells; assay: MTT assay; type: cell-based, human; details: 10^−7M, 96 hrs
Method: as §3

[9] = system: SW837 colon cancer cells; assay: MTT assay; type: cell-based, human; details: 10^−7M, 96 hrs
Method: as §3

[10] = system: mononuclear bone marrow cells from VDR knock-out (VDR-KO) mice; assay: Colony-forming assay in methylcellulose, VDR knock-out mice; type: cell-based; details: 10^−8 M
From the text: In FIG. 6D, colony formation by mononuclear bone marrow cells from VDR knock-out (VDR-KO) and wild type (WT) mice is shown. Mononuclear cells were obtained from femoral bone marrow plugs and grown in methylcellulose culture media with either paricalcitol (10^−8M) or diluant. Colonies were counted on day 10 of culture. The number of total colonies (average) were 87 (control) and 66 (paricalcitol 10^−8M) in wild type mice, and 110 (control) and 122 (paricalcitol 10^−8M) in VDR-KO mice. The percentage of macrophage, granulocyte and mixed granulocyte/macrophage colonies are shown. Triplicate wells for each mouse and a total of three KO and three WT mice were studied. G, granulocyte colonies; G/M mixed granulocyte/macrophage colonies; M, macrophage colonies.
The VDR KO Mouse and Colony-Forming Assay was performed as follows. VDR KO mice were generated and genotypes were determined by Southern Blot Analysis as described previously (O'Kelly et al., supra, 2002). For experiments using VDR KO mice, their wild-type (WT) littermates were used as controls. Mice were killed by cervical neck dislocation. Bone marrow was flushed out of isolated femurs with (a-MEM; Gibco BRL, Grand Island, N.Y., USA) including 10% FCS using a 26-gauge needle. Isolated spleens were injected with DMEM (Gibco BRL) plus 10% FCS and crushed with forceps to release cells. Mononuclear cells from bone marrow or spleen were separated by Ficoll-Hypaque density centrifugation (Amersham Pharmacia, Uppsala, Sweden). Resuspended mononuclear bone marrow cells (2×10^4 cells/ml) and growth factors were added 1:10 to methylcellulose medium M3234 (StemCell Technologies Inc., Vancouver, British Columbia, Canada) to yield a final concentration of 1% methylcellulose, 30% FCS, 1% BSA, 10^-4M mercaptoethanol, and 2 mM L-glutamine as described previously (19). Cells were plated in six-well plates in a volume of 1 ml and incubated at 37° C. in a humidified atmosphere containing 5% CO2. Colonies were counted after 2 weeks. Colony type was established by morphology; and to ensure accurate determination, representative colonies were plucked from the plates, centrifuged onto slides, stained with Wright-Giemsa stain and examined by light microscopy.

[11] = system: ARH-77 myeloma cells; assay: MTT assay; type: cell-based, human
[12] = system: RPMI-8226 myeloma cells; details: 4 days exposure

C[C@H](/C=C/[C@H](C)C(C)(C)O)[C@H]1CC[C@H]2/C(=C/C=C3C[C@@H](O)C[C@H](O)C3)CCC[C@]12C [paricalcitol, 19-nor-1,25, (OH)2D3]
EC50 [1]: 0.0024 µM
EC50 [2]: 0.017 µM
EC50 [3]: 0.046 µM
EC50 [4]: 0.0058 µM
expression of Bcl-2 and p27^KIP1 ([5]; 0.01 μM each, 3 days): down-regulated
decrease of Bcl-2 protein level ([5]; 10^−7M, 72 hrs): about 40%
effect on levels of Bax ([5]; 10^−7M, 72 hrs): did not affect
effect on levels of p21WAF1 ([5]; 10^−7M, 96 hrs): little effect
increase of p27KIP1 expression ([5]; 10^−7M, 96 hrs): about 3 fold
growth by MTT assay [6]: either only slightly sensitive or resistant
growth by MTT assay [7]: sensitive
growth by MTT assay [8]: either only slightly sensitive or resistant
growth by MTT assay [9]: sensitive
number of total colonies (average) ([10]; VDR knock out mice, control 110): 122
percentage of granulocyte colonies ([10]; VDR knock-out mice, control 13±3%): 13±4%
percentage of macrophage colonies ([10]; VDR knock-out mice, control 30±8%): 25±5%
percentage of mixed colonies ([10]; VDR knock-out mice, control 56±10%): 61±8%
antiproliferative effect [11]: somewhat less than the effect on NCI-H929 cells
antiproliferative effect [12]: somewhat less than the effect on NCI-H929 cells
